Results from patent US20110172296A1, “MODULATION OF TRANSFORMING GROWTH FACTOR-BETA 1 EXPRESSION” (priority 2010, published 2011).
pIC50: −log10 of the molar value. “And” between values parts separate entries of the source, which are not always exact repeats. Identical values can stand only once. e = 2'-O-(2-methoxyethyl) (MOE); d = 2'-deoxy (DNA)

What was measured:
BALB/c mice [1] = experiment: Tolerability in BALB/c mice: plasma transaminases ALT and AST (Example 7); conditions: for aspartate transaminase levels: plasma
Protocol: (§1) These gapmer oligonucleotides were designed to target human TGF-beta1 and have varying degrees of mismatch with murine TGF-beta1 sequence, as shown in Table 1. Oligo ID Nos. 413982 and 414040 have greater than 3 mismatches to the murine TGF-beta1 sequence. Oligo ID No. 414035 has 2 mismatches to murine TGF-beta1. Oligo ID No. 414036 has no mismatches to murine TGF-beta1.
(§2) BALB/c mice were injected with 25 mg/kg or 50 mg/kg of Oligo ID Nos. 413982, 414035, 414036, or 414040 twice a week for 4 weeks. A control group of mice was injected with phosphate buffered saline (PBS) twice a week for 4 weeks. Plasma transaminase levels were evaluated bi-weekly.
(§3) To evaluate the impact of TGF-beta1 antisense oligonucleotides on the hepatic function of mice described above, plasma concentrations of transaminases were measured using an automated clinical chemistry analyzer (Hitachi Olympus AU400e, Melville, N.Y.).

human TGF-beta1 mRNA [2] = experiment: Dose-dependent antisense inhibition of human TGF-beta1 in HuVEC cells, Lipofectamine 2000, 0.3292-80 nM, comparison with oligos of U.S. Pat. No. 6,436,909 (Example 4); assay type: cell-based
Protocol: The dose-dependent antisense inhibition potential of these gapmers was compared with that of Oligo IDs 104992 and 1138498 from U.S. Pat. No. 6,436,909. Cells were plated at a density of 5,000 cells per well and transfected using Lipofectamine™ 2000 reagent with 0.3292 nM, 0.9877 nM, 2.963 nM, 8.8889 nM, 26.6667 nM, and 80 nM concentrations of antisense oligonucleotide for 4 hours, as specified in Table 4. After a recovery period of approximately 16 hours, RNA was isolated from the cells and TGF-beta1 mRNA levels were measured by quantitative real-time PCR. Human TGF-beta1 primer probe set RTS 2980 was used to measure mRNA levels. TGF-beta1 mRNA levels were adjusted according to total RNA content, as measured by RIBOGREEN®. Results are presented as percent inhibition of TGF-beta1, relative to untreated control cells. […] All the antisense oligonucleotides in Table 4 target human TGF-beta1 mRNA (SEQ ID NO: 1).

BALB/c mice [3] = conditions: mouse, in vivo
Protocol: as §1, §2, §3

human TGF-beta1 mRNA [4] = experiment: Antisense inhibition of human TGF-beta1 mRNA in HuVEC cells, single 10 nM dose, Lipofectamine 2000 (Example 2); assay type: cell-based
Outline: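 HuVEC cells (5,000/well) transfected with 10 nM 2-13-5 MOE gapmer (phosphorothioate, 5-methylcytosine) via Lipofectamine 2000 for 4 h, then recovered ~24 h. mRNA measured by qRT-PCR, normalized to RIBOGREEN total RNA; percent inhibition versus untreated cells.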

human TGF-beta1 mRNA [5] = experiment: Dose-dependent confirmation of antisense inhibition of human TGF-beta1 in HuVEC cells after large-scale synthesis, Lipofectamine 2000, 0.007-15 nM (Example 5); assay type: cell-based; conditions: for percent inhibition of TGF-beta1: Lipofectamine 2000
Protocol: Cells were plated at a density of 5,000 cells per well and transfected using Lipofectamine™ 2000 reagent with 0.007 nM, 0.021 nM, 0.062 nM, 0.185 nM, 0.556 nM, 1.667 nM, 5 nM, and 15 nM concentrations of antisense oligonucleotide for 4 hours, as specified in Table 5. After a recovery period of approximately 16 hours, RNA was isolated from the cells and TGF-beta1 mRNA levels were measured by quantitative real-time PCR. Human TGF-beta1 primer probe set RTS 2980 was used to measure mRNA levels. TGF-beta1 mRNA levels were adjusted according to total RNA content, as measured by RIBOGREEN®. Results are presented as percent inhibition of TGF-beta1, relative to untreated control cells.

human TGF-beta1 mRNA [6] = experiment: Dose-dependent antisense inhibition of human TGF-beta1 in HuVEC cells, Lipofectamine 2000, 0.9375-30 nM (Example 3); assay type: cell-based; conditions: Lipofectamine 2000
Protocol: Cells were plated at a density of 5,000 cells per well and transfected using Lipofectamine™ 2000 reagent with 0.9375 nM, 1.875 nM, 3.75 nM, 7.5 nM, 15 nM, and 30 nM concentrations of antisense oligonucleotide for 4 hours, as specified in Table 3. After a recovery period of approximately 16 hours, RNA was isolated from the cells and TGF-beta1 mRNA levels were measured by quantitative real-time PCR. Human TGF-beta1 primer probe set RTS 2980 (forward sequence CTCTCCGACCTGCCACAGA, SEQ ID NO: 160; reverse sequence […], SEQ ID NO: 53; probe sequence CCCTATTCAAGACCACCCACCTTCTGGTX, SEQ ID NO: 161) was used to measure mRNA levels. TGF-beta1 mRNA levels were adjusted according to total RNA content, as measured by RIBOGREEN®. Results are presented as percent inhibition of TGF-beta1, relative to untreated control cells.

human TGF-beta1 mRNA [7] = experiment: Dose-dependent confirmation of antisense inhibition of human TGF-beta1 in HuVEC cells, electroporation (Example 6); assay type: cell-based
Protocol: The gapmers from Example 5 (see Table 5) were also tested at various doses in HuVEC cells using electroporation as the transfection reagent. Cells were plated at a density of 20,000 cells per well and transfected using electroporation with 0.15625 nM, 0.3125 nM, 0.625 nM, 1.25 nM, 2.5 nM, 5 nM, 10 nM, and 20 nM concentrations of antisense oligonucleotide for 4 hours, as specified in Table 6. After a recovery period of approximately 16 hours, RNA was isolated from the cells and TGF-beta1 mRNA levels were measured by quantitative real-time PCR. TGF-beta1 mRNA levels were adjusted according to total RNA content, as measured by RIBOGREEN®. Results are presented as percent inhibition of TGF-beta1, relative to untreated control cells.

[8] = test system: Col1α2 mRNA expression in rat skin; experiment: Col1α2 mRNA expression in rat model of skin fibrosis and wounding, intradermal treatment (Example 9); assay type: in vivo
Text: Scar and fibrotic tissues are mainly composed of collagen, especially collagen1α2 (Col1α2). Therefore, the expression of Col1α2 can be used as a marker for the severity of scarring, especially in skin. We have evaluated the ability of a TGF-beta1 ASO to suppress the expression of Col1α2 in rat skin subsequent to full-thickness skin wounding, an injury that typically leads to a 4-6 fold induction in Col1α2 expression.
On Day 1 of the study, a 0.8 centimeter biopsy punch was used to create full-thickness wounds on the back of anesthetized adult hairless rats. Two biopsies were performed on each rat's back; one in the lower left quadrant, and one in the upper right quadrant. The wounds were left open, but dressed with a sterile occlusive bandage, which were left in place for 24 hours.
Biopsy sites were treated intradermally with PBS (vehicle) or a 3 mg dose of a rat specific TGF-beta1 antisense oligonucleotide (Oligo ID 433849; SEQ ID NO. 166) on Days 1, 5, 9, and 13 post-biopsy. Animals were sacrificed on Day 14 post-biopsy. […]
A subset of the excised skin from each initial biopsy site was retained and prepared for Col1α2 mRNA expression (by RT-PCR). […] On day 15, animals were euthanized, a sample of skin from the center of the wound was obtained with a 0.5 cm biopsy punch, and Col1α2 mRNA expression determined.

414035 (antisense GTCCTTAAATACAGCCCCCA; sugars from the 5' end e2 d13 e5, backbone and methylation of C not given here) [compound 414035]
alanine transaminase levels (BALB/c mice [1]; 25 mg/kg twice a week, Week 2): 56 IU/L
alanine transaminase levels (BALB/c mice [1]; 25 mg/kg twice a week, Week 4): 45 IU/L
aspartate transaminase levels (BALB/c mice [1]; 25 mg/kg twice a week, Week 2): 82 IU/L
aspartate transaminase levels (BALB/c mice [1]; 25 mg/kg twice a week, Week 4): 116 IU/L
alanine transaminase levels (BALB/c mice [1]; 50 mg/kg twice a week, Week 2): 66 IU/L
alanine transaminase levels (BALB/c mice [1]; 50 mg/kg twice a week, Week 4): 67 IU/L
aspartate transaminase levels (BALB/c mice [1]; 50 mg/kg twice a week, Week 2): 123 IU/L
aspartate transaminase levels (BALB/c mice [1]; 50 mg/kg twice a week, Week 4): 155 IU/L
increase in ALT/AST (BALB/c mice [1]; 25 or 50 mg/kg twice a week for four weeks): < 3 fold
percent inhibition of TGF-beta1 (human TGF-beta1 mRNA [2]; 0.3292 nM): 74%
percent inhibition of TGF-beta1 (human TGF-beta1 mRNA [2]; 0.9877 nM): 84%
percent inhibition of TGF-beta1 (human TGF-beta1 mRNA [2]; 2.963 nM): 92%
percent inhibition of TGF-beta1 (human TGF-beta1 mRNA [2]; 8.8889 nM): 94%
percent inhibition of TGF-beta1 (human TGF-beta1 mRNA [2]; 26.6667 nM): 93%
percent inhibition of TGF-beta1 (human TGF-beta1 mRNA [2]; 80.0 nM): 93%
tolerability compared to Oligo ID 105204 (BALB/c mice [3]): improved tolerability
% inhibition (human TGF-beta1 mRNA [4]; 10 nM oligonucleotide, HuVEC, relative to untreated control cells, gapmers targeted to SEQ ID NO: 1): 89%
inhibition of a TGF-beta1 mRNA (human TGF-beta1 mRNA [4]; threshold lists of Oligo IDs, 10 nM): 60% and 65% and 70% and 75% and 80% and 85%
percent inhibition of TGF-beta1 (human TGF-beta1 mRNA [5]; 0.007 nM): 9%
percent inhibition of TGF-beta1 (human TGF-beta1 mRNA [5]; 0.021 nM): 26%
percent inhibition of TGF-beta1 (human TGF-beta1 mRNA [5]; 0.062 nM): 45%
percent inhibition of TGF-beta1 (human TGF-beta1 mRNA [5]; 0.185 nM): 59%
percent inhibition of TGF-beta1 (human TGF-beta1 mRNA [5]; 0.556 nM): 76%
percent inhibition of TGF-beta1 (human TGF-beta1 mRNA [5]; 1.667 nM): 84%
percent inhibition of TGF-beta1 (human TGF-beta1 mRNA [5]; 5 nM): 90%
percent inhibition of TGF-beta1 (human TGF-beta1 mRNA [5]; 15 nM): 91%
pIC50 (human TGF-beta1 mRNA [5]; Lipofectamine 2000, Example 5): 9.89
percent inhibition of TGF-beta1 (human TGF-beta1 mRNA [6]; 0.9375 nM): 64%
percent inhibition of TGF-beta1 (human TGF-beta1 mRNA [6]; 1.875 nM): 75%
percent inhibition of TGF-beta1 (human TGF-beta1 mRNA [6]; 3.75 nM): 88%
percent inhibition of TGF-beta1 (human TGF-beta1 mRNA [6]; 7.5 nM): 94%
percent inhibition of TGF-beta1 (human TGF-beta1 mRNA [6]; 15 nM): 95%
percent inhibition of TGF-beta1 (human TGF-beta1 mRNA [6]; 30 nM): 94%
percent inhibition of TGF-beta1 mRNA relative to untreated control cells (human TGF-beta1 mRNA [7]; 0.15625 nM oligonucleotide): 17%
percent inhibition of TGF-beta1 mRNA relative to untreated control cells (human TGF-beta1 mRNA [7]; 0.3125 nM oligonucleotide): 49%
percent inhibition of TGF-beta1 mRNA relative to untreated control cells (human TGF-beta1 mRNA [7]; 0.625 nM oligonucleotide): 63%
percent inhibition of TGF-beta1 mRNA relative to untreated control cells (human TGF-beta1 mRNA [7]; 1.25 nM oligonucleotide): 77%
percent inhibition of TGF-beta1 mRNA relative to untreated control cells (human TGF-beta1 mRNA [7]; 2.5 nM oligonucleotide): 89%
percent inhibition of TGF-beta1 mRNA relative to untreated control cells (human TGF-beta1 mRNA [7]; 5.00 nM oligonucleotide): 94%
percent inhibition of TGF-beta1 mRNA relative to untreated control cells (human TGF-beta1 mRNA [7]; 10.00 nM oligonucleotide): 94%
percent inhibition of TGF-beta1 mRNA relative to untreated control cells (human TGF-beta1 mRNA [7]; 20 nM oligonucleotide): 94%

433849 (antisense GTCCTTAAATACAGCCCCGG; listed as DNA, chemistry not given here) [compound 433849]
expression of Col1α2 in rat skin ([8]; 3 mg intradermally on Days 1, 5, 9, 13 post-biopsy, day 14 after skin wounding): significantly reduced
% Col1α2 mRNA compared to the unwounded control ([8]; hairless rats, full-thickness skin wound, 3 mg intradermal on Days 1, 5, 9, 13, day 14 after skin wounding): 83%
